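Five concentrations, 48 hours, 96-well plates. TGI: concentration producing complete growth inhibition.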
Experiments:
Experiment in all cases: growth of human tumour cells (NCI), 48 h
COLO 205 colon = system: COLO 205 colon
DMS 273 small cell lung = system: DMS 273 small cell lung
SK-OV-3 ovarian = system: SK-OV-3 ovarian
RXF-631 renal = system: RXF-631 renal
CAKI-1 renal = system: CAKI-1 renal
SF-295 CNS = system: SF-295 CNS
RXF 393 renal = system: RXF 393 renal
UO-31 renal = system: UO-31 renal
SNB-75 CNS = system: SNB-75 CNS
SK-MEL-2 melanoma = system: SK-MEL-2 melanoma
RPMI-8226 leukemia = system: RPMI-8226 leukemia
HCT-116 colon = system: HCT-116 colon
HCC-2998 colon = system: HCC-2998 colon
M14 melanoma = system: M14 melanoma
SK-MEL-28 melanoma = system: SK-MEL-28 melanoma
OVCAR-3 ovarian = system: OVCAR-3 ovarian
EKVX NSCLC = system: EKVX NSCLC
HOP-92 NSCLC = system: HOP-92 NSCLC
KM20L2 colon = system: KM20L2 colon
XF 498 CNS = system: XF 498 CNS
UACC-257 melanoma = system: UACC-257 melanoma
786-0 renal = system: 786-0 renal
CCRF-CEM leukemia = system: CCRF-CEM leukemia
OVCAR-8 ovarian = system: OVCAR-8 ovarian
DLD-1 colon = system: DLD-1 colon
LOX IMVI melanoma = system: LOX IMVI melanoma
HL-60(TB) leukemia = system: HL-60(TB) leukemia
A549 NSCLC = system: A549 NSCLC
SF-268 CNS = system: SF-268 CNS
SN12C renal = system: SN12C renal
SNB-78 CNS = system: SNB-78 CNS
SNB-19 CNS = system: SNB-19 CNS
DMS 114 small cell lung = system: DMS 114 small cell lung
SK-MEL-5 melanoma = system: SK-MEL-5 melanoma
NCI-H522 lung = system: NCI-H522 lung
U251 CNS = system: U251 CNS
MOLT-4 leukemia = system: MOLT-4 leukemia
UACC-62 melanoma = system: UACC-62 melanoma
KM12 colon = system: KM12 colon
SR leukemia = system: SR leukemia
SW-620 colon = system: SW-620 colon
M19-MEL melanoma = system: M19-MEL melanoma
K-562 leukemia = system: K-562 leukemia
LXFL 529 NSCLC = system: LXFL 529 NSCLC
HCT-15 colon = system: HCT-15 colon
A498 renal = system: A498 renal
NCI-H460 lung = system: NCI-H460 lung
ACHN renal = system: ACHN renal
TK-10 renal = system: TK-10 renal
OVCAR-4 ovarian = system: OVCAR-4 ovarian
HOP-62 NSCLC = system: HOP-62 NSCLC
OVCAR-5 ovarian = system: OVCAR-5 ovarian
NCI-H23 lung = system: NCI-H23 lung
SF-539 CNS = system: SF-539 CNS
HT29 colon = system: HT29 colon
IGROV1 ovarian = system: IGROV1 ovarian
MALME-3M melanoma = system: MALME-3M melanoma
NCI-H226 lung = system: NCI-H226 lung
HOP-18 NSCLC = system: HOP-18 NSCLC

Measured: TGI

Cn1ccnc1Cn1cc(-c2cccc(-c3cn[nH]c3)c2)cn1
41.9 µM: SK-OV-3 ovarian
99.8 µM: EKVX NSCLC
49 µM: UACC-62 melanoma
> 100 µM: COLO 205 colon | DMS 273 small cell lung | RXF-631 renal | CAKI-1 renal | SF-295 CNS | RXF 393 renal | UO-31 renal | SNB-75 CNS | SK-MEL-2 melanoma | RPMI-8226 leukemia | HCT-116 colon | HCC-2998 colon | M14 melanoma | SK-MEL-28 melanoma | OVCAR-3 ovarian | HOP-92 NSCLC | KM20L2 colon | XF 498 CNS | UACC-257 melanoma | 786-0 renal | CCRF-CEM leukemia | OVCAR-8 ovarian | DLD-1 colon | LOX IMVI melanoma | HL-60(TB) leukemia | A549 NSCLC | SF-268 CNS | SN12C renal | SNB-78 CNS | SNB-19 CNS | DMS 114 small cell lung | SK-MEL-5 melanoma | NCI-H522 lung | U251 CNS | MOLT-4 leukemia | KM12 colon | SR leukemia | SW-620 colon | M19-MEL melanoma | K-562 leukemia | LXFL 529 NSCLC | HCT-15 colon | A498 renal | NCI-H460 lung | ACHN renal | TK-10 renal | OVCAR-4 ovarian | HOP-62 NSCLC

CC(O)C(C(=O)O)N(CC1(O)OCC(O)C(O)C1O)N=O (configuration not stated)
> 100 µM: COLO 205 colon | DMS 273 small cell lung | SK-OV-3 ovarian | RXF-631 renal | RXF 393 renal | UO-31 renal | SNB-75 CNS | OVCAR-5 ovarian | SK-MEL-2 melanoma | RPMI-8226 leukemia | HCT-116 colon | HCC-2998 colon | M14 melanoma | SK-MEL-28 melanoma | NCI-H23 lung | OVCAR-3 ovarian | SF-539 CNS | EKVX NSCLC | HOP-92 NSCLC | KM20L2 colon | XF 498 CNS | UACC-257 melanoma | 786-0 renal | CCRF-CEM leukemia | HT29 colon | OVCAR-8 ovarian | DLD-1 colon | LOX IMVI melanoma | HL-60(TB) leukemia | A549 NSCLC | SNB-78 CNS | DMS 114 small cell lung | NCI-H522 lung | U251 CNS | MOLT-4 leukemia | UACC-62 melanoma | IGROV1 ovarian | KM12 colon | SW-620 colon | M19-MEL melanoma | K-562 leukemia | LXFL 529 NSCLC | A498 renal | NCI-H460 lung | ACHN renal | TK-10 renal | MALME-3M melanoma | HOP-62 NSCLC

O=C1CCC(=O)N1CNc1cccc(NCN2C(=O)CCC2=O)c1
> 100 µM: COLO 205 colon | DMS 273 small cell lung | RXF-631 renal | SF-295 CNS | RXF 393 renal | UO-31 renal | SNB-75 CNS | OVCAR-5 ovarian | SK-MEL-2 melanoma | HCT-116 colon | HCC-2998 colon | M14 melanoma | SK-MEL-28 melanoma | NCI-H23 lung | OVCAR-3 ovarian | SF-539 CNS | EKVX NSCLC | HOP-92 NSCLC | XF 498 CNS | UACC-257 melanoma | 786-0 renal | CCRF-CEM leukemia | HT29 colon | OVCAR-8 ovarian | DLD-1 colon | A549 NSCLC | SF-268 CNS | SN12C renal | SNB-78 CNS | SNB-19 CNS | SK-MEL-5 melanoma | NCI-H522 lung | U251 CNS | MOLT-4 leukemia | UACC-62 melanoma | IGROV1 ovarian | KM12 colon | SW-620 colon | M19-MEL melanoma | K-562 leukemia | LXFL 529 NSCLC | HCT-15 colon | NCI-H460 lung | ACHN renal | TK-10 renal | MALME-3M melanoma | OVCAR-4 ovarian | HOP-62 NSCLC
46.1 µM: RPMI-8226 leukemia
49.8 µM: HL-60(TB) leukemia
28.4 µM: KM20L2 colon

COc1ccc(Nc2nc(C#N)c(N)s2)cc1
> 100 µM: COLO 205 colon | DMS 273 small cell lung | SK-OV-3 ovarian | RXF-631 renal | CAKI-1 renal | UO-31 renal | SNB-75 CNS | OVCAR-5 ovarian | SK-MEL-2 melanoma | HCT-116 colon | M14 melanoma | SK-MEL-28 melanoma | OVCAR-3 ovarian | SF-539 CNS | HOP-92 NSCLC | KM20L2 colon | UACC-257 melanoma | 786-0 renal | HT29 colon | OVCAR-8 ovarian | DLD-1 colon | A549 NSCLC | SF-268 CNS | SN12C renal | SNB-78 CNS | SNB-19 CNS | NCI-H522 lung | U251 CNS | UACC-62 melanoma | IGROV1 ovarian | KM12 colon | NCI-H226 lung | SW-620 colon | K-562 leukemia | LXFL 529 NSCLC | HCT-15 colon | NCI-H460 lung | MALME-3M melanoma | OVCAR-4 ovarian | HOP-62 NSCLC
47.8 µM: NCI-H23 lung
56.1 µM: LOX IMVI melanoma
60.3 µM: ACHN renal
91.3 µM: SF-295 CNS
89.6 µM: TK-10 renal
77.8 µM: RPMI-8226 leukemia
89.2 µM: HL-60(TB) leukemia
64 µM: XF 498 CNS

CC#C[C@@]1(O)CCCCC1O (some centres not stated)
> 100 µM: COLO 205 colon | DMS 273 small cell lung | SK-OV-3 ovarian | RXF-631 renal | SF-295 CNS | RXF 393 renal | UO-31 renal | SNB-75 CNS | SK-MEL-2 melanoma | RPMI-8226 leukemia | HCT-116 colon | HCC-2998 colon | M14 melanoma | SK-MEL-28 melanoma | NCI-H23 lung | OVCAR-3 ovarian | SF-539 CNS | EKVX NSCLC | HOP-92 NSCLC | KM20L2 colon | XF 498 CNS | UACC-257 melanoma | 786-0 renal | CCRF-CEM leukemia | HT29 colon | OVCAR-8 ovarian | HOP-18 NSCLC | LOX IMVI melanoma | HL-60(TB) leukemia | A549 NSCLC | SF-268 CNS | SN12C renal | SNB-78 CNS | SNB-19 CNS | DMS 114 small cell lung | SK-MEL-5 melanoma | NCI-H522 lung | U251 CNS | MOLT-4 leukemia | UACC-62 melanoma | IGROV1 ovarian | KM12 colon | NCI-H226 lung | SW-620 colon | M19-MEL melanoma | K-562 leukemia | HCT-15 colon | A498 renal | NCI-H460 lung | ACHN renal | TK-10 renal | MALME-3M melanoma | OVCAR-4 ovarian | HOP-62 NSCLC

— PubChem BioAssay (NCI)
